Assay results: patent US4000269A, “S-(α-substituted-arylmethylthio, -arylmethylsulfinyl, and -arylmethylsulfonyl)methyl phosphorus esters used as insecticides” (priority 1975, dated 1976)
Like-named read-outs stand apart in the source and are kept apart here.

What was measured:
Format in all cases: in vivo
[1] = system: Tarnished Plant Bug (Lygus lineolaris); experiment: A. Tarnished Plant Bug leaf-dip test; conditions: 48 h, read-out: Percent Mortality, Tarnished plant Bug
Procedure: (§1) Test compounds are prepared as 1000 ppm. solutions in 10 % acetone, 0.2 % Alrodyne 315 , and 89.8 % water. A tenfold dilution is made with 65 % acetone and 35 % water. The primary leaves of Sieva lima bean plants are dipped for 3 to 5 seconds in the test solutions and placed in an exhaust hood to dry. When dry, each leaf is placed in a 4 -inch petri dish with a moist filter paper on the bottom. Ten adult Lygus bugs are aspirated from the stock culture and placed in the petri dish. The dishes are covered and held at 80° F. and 50 % R.H. After 2 days, mortality counts are made.

[2] = system: Boll Weevil (Anthonomus grandis); experiment: B. Boll Weevil leaf-dip test; conditions: 48 h, read-out: Percent Mortality, Boll Weevil
Procedure: as §1, with “The first or second true leaf” for “The primary leaves”, “of young cotton” for “of Sieva lima bean”, “plants is” for “plants are”, “test solution” for “test solutions”, “adult boll weevils” for “adult Lygus bugs”, “are removed” for “are aspirated”

Bean Aphid (Aphis fabae) = experiment: C. Bean Aphid spray test; conditions: 48 h, read-out: Percent Mortality, Bean Aphid
Procedure: Compounds are tested at 100 , 10 and 1 ppm. in solution or suspension in 65 % acetone/35 % water. Two-inch fiber pots each containing a nasturtium plant 2 inches high and infested with about 150 aphids 2 days earlier, are placed on a turntable (4 RPM) and sprayed for two revolutions with a No. 154 DeVilbiss Atomizer at 20 psi. air pressure. The spray tip is held about 6 inches from the plants, and the spray is directed so as to give complete coverage of the aphids and the plants. The sprayed plants are laid on their sides on white enamel trays. Mortality estimates are made after holding for 2 days at 70° F. and 50% R.H.

[3] = system: Southern Armyworm (Prodenia eridania); experiment: D. Southern Armyworm leaf-dip test; conditions: Spodoptera eridania, 48 h, read-out: Percent Mortality, Southern Armyworm
Procedure: Compounds are tested at 1000 and 100 ppm. in solution or suspension in 65 % acetone/35 % water. Sieva lima bean primary leaves are dipped for 3 seconds in the test solution and set in a hood on a screen to dry. When dry, each leaf is placed in a 4 -inch petri dish which has a moist filter paper in the bottom and ten third-instar armyworm larvae about 3/8 inch long. The dishes are covered and held at 80° F., and 60 % R.H. After 2 days, mortality counts and estimates of the amount of feeding are made. Compounds showing partial kill and/or inhibition of feeding are held an extra day for further observations.

[4] = system: Two-spotted Spider Mite (Tetranychus urticae); experiment: E. Two-spotted Spider Mite plant-dip test; conditions: 48 h, read-out: Percent Mortality, Two-spotted Spider Mite; for mortality at 100 ppm: 2 days
Procedure: Sieva lima bean plants with primary leaves 3 to 4 inches long are infested with about 100 adult mites per leaf 4 hours before use in this test. The mite and egg infested plants are dipped for 3 seconds in the same solutions used in the aphid test, and the plants set in the hood to dry. They are held for 2 days at 80° F., 60% R.H., and the adult mite mortality estimated on one leaf under a steroscopic microscope. The other leaf is left on the plant an additional 5 days and then examined at 10 X power to estimate the kill of eggs and of newly hatched nymphs, giving a measure of ovicidal and residual action, respectively.

[5] = system: Mexican Bean Beetle (Epilachna varivestis); experiment: F. Mexican Bean Beetle leaf-dip test; conditions: 48 h, 2 days, read-out: Percent Mortality, Mexican Bean Beetle
Procedure: Compounds to be tested are made up as 100 or 10 ppm. solutions in 65 % acetone/35 % water. Sieva lima bean leaves are dipped in the test solution and set in the hood to dry. When dry, they are placed in 4 -inch petri dishes which have a moist filter paper in the bottom, and 10 third-instar bean beetles are added to each dish. The dishes are covered and held at 80° F., 60 % R.H. After 2 days, mortality counts and estimates of the amount of feeding are made. Compounds showing kills greater than 75 % are further tested at tenfold dilutions in 65 % acetone/35 % water.

[6] = system: Western Potato Leafhopper (Empoasca abrupta); experiment: G. Western Potato Leafhopper plant-dip test; conditions: 48 h, 2 days, read-out: Percent Mortality, Western Potato Leafhopper
Procedure: Sieva lima bean plants with the primary leaf expanded to 3 to 4 inches are dipped into 100 or 10 ppm. 50 % acetone/50 % water solutions and set in the hood to dry. A 1 -inch piece of the tip of a treated leaf is cut off and placed in a 4 -inch petri dish with a moist filter paper in the bottom. From 3 to 10 second-instar nymphs are tapped from the culture plants into the test dish and rapidly covered. Mortality counts are made after 2 days at 80° F., and 50 % R.H.

[7] = system: Malaria Mosquito (Anopheles quadrimaculatus); experiment: H. Malaria Mosquito Adult Test; conditions: 24 h, adults, 1 day, read-out: Percent Mortality, Malaria Mosquito
Procedure: Solutions of 65% acetone/35% water containing 10 ppm. of test compound are poured into wide-mouth 2-ounce jars, each containing a microscope slide. The slides are removed from the test solution with forceps and laid horizontally to dry on a wide-mouth 4-ounce bottle. When dry, they are placed in the same 4-ounce bottle and 10 4- to 5-day-old mosquitoes of mixed sexes are added to each bottle. A piece of cotton gauze held on by an elastic band serves as a lid, and wad of cotton soaked in 10% honey solution serves as food. Mortality counts are made after 1 day at 80° F., 50% R.H. (relative humidity) Data obtained with the above procedures are reported in Table II below.

COP(=S)(OC)SCSC(C)(C)c1cccc(Cl)c1Cl [drawing 12]
mortality at 100 ppm [1]: 0% | mortality at 100 ppm [2]: 0% | mortality at 1 ppm (Bean Aphid (Aphis fabae)): 75% | mortality at 1000 ppm [3]: 100% | mortality at 100 ppm ([3]; 2 days): 0% | mortality at 100 ppm [4]: 0% | mortality at 300 ppm [4]: 0% | mortality at 100 ppm [5]: 60% | mortality at 100 ppm [6]: 100% | mortality at 10 ppm [7]: 90%

CCOP(=S)(OCC)SCSC(C)(CC)c1ccccc1 (stereo not drawn) [drawing 14]
mortality at 100 ppm ([1]; 100 ppm., 2 days): 0% | mortality at 100 ppm ([2]; 100 ppm., 2 days): 0% | mortality at 1 ppm (Bean Aphid (Aphis fabae); 1 ppm., 2 days): 100% | mortality at 10 ppm (Bean Aphid (Aphis fabae); 2 days): 100% | mortality at 100 ppm (Bean Aphid (Aphis fabae); 2 days): 100% | mortality at 100 ppm ([3]; 2 days): 0% | mortality at 1000 ppm ([3]; 1000 ppm., 2 days): 100% | mortality at 100 ppm [4]: 0% | mortality at 300 ppm [4]: 50% | mortality at 100 ppm [5]: 0% | mortality at 10 ppm [6]: 0% | mortality at 100 ppm [6]: 100% | mortality at 10 ppm [7]: 70%

CCOP(=S)(OCC)SCSC(CC)(CC)c1ccccc1 [drawing 15]
mortality at 100 ppm ([1]; 100 ppm., 2 days): 0% | mortality at 100 ppm ([2]; 100 ppm., 2 days): 0% | mortality at 1 ppm (Bean Aphid (Aphis fabae); 1 ppm., 2 days): 0% | mortality at 10 ppm (Bean Aphid (Aphis fabae); 2 days): 100% | mortality at 100 ppm (Bean Aphid (Aphis fabae); 2 days): 100% | mortality at 100 ppm ([3]; 2 days): 0% | mortality at 1000 ppm ([3]; 1000 ppm., 2 days): 100% | mortality at 300 ppm [4]: 0% | mortality at 10 ppm [5]: 0% | mortality at 100 ppm [5]: 90% | mortality at 100 ppm [6]: 0% | mortality at 10 ppm [7]: 0%

CCCSP(=O)(OCC)SCSC(C)(C)c1ccccc1 (stereo not drawn) [drawing 16]
mortality at 100 ppm ([1]; 100 ppm., 2 days): 0% | mortality at 100 ppm ([2]; 100 ppm., 2 days): 0% | mortality at 1 ppm (Bean Aphid (Aphis fabae); 1 ppm., 2 days): 90% | mortality at 10 ppm (Bean Aphid (Aphis fabae); 2 days): 100% | mortality at 100 ppm (Bean Aphid (Aphis fabae); 2 days): 100% | mortality at 100 ppm ([3]; 2 days): 100% | mortality at 1000 ppm ([3]; 1000 ppm., 2 days): 100% | mortality at 100 ppm [4]: 100% | mortality at 300 ppm [4]: 100% | mortality at 10 ppm [5]: 80% | mortality at 100 ppm [5]: 80% | mortality at 10 ppm [6]: 0% | mortality at 100 ppm [6]: 100% | mortality at 10 ppm [7]: 0%

CCOP(=S)(OCC)SCSC(C)(C)c1ccc(Cl)cc1 [drawing 18]
mortality at 100 ppm ([1]; 100 ppm., 2 days): 0% | mortality at 100 ppm ([2]; 100 ppm., 2 days): 0% | mortality at 1 ppm (Bean Aphid (Aphis fabae); 1 ppm., 2 days): 90% | mortality at 10 ppm (Bean Aphid (Aphis fabae); 2 days): 100% | mortality at 100 ppm (Bean Aphid (Aphis fabae); 2 days): 100% | mortality at 100 ppm ([3]; 2 days): 100% | mortality at 1000 ppm ([3]; 1000 ppm., 2 days): 100% | mortality at 100 ppm [4]: 100% | mortality at 300 ppm [4]: 100% | mortality at 10 ppm [5]: 40% | mortality at 100 ppm [5]: 100% | mortality at 10 ppm [6]: 100% | mortality at 100 ppm [6]: 100% | mortality at 10 ppm [7]: 75%

COP(=S)(OC)SCSC(C)(C)c1ccc(Br)cc1 [drawing 19]
mortality at 100 ppm ([1]; 100 ppm., 2 days): 40% | mortality at 100 ppm ([2]; 100 ppm., 2 days): 100% | mortality at 1 ppm (Bean Aphid (Aphis fabae); 1 ppm., 2 days): 100% | mortality at 10 ppm (Bean Aphid (Aphis fabae); 2 days): 100% | mortality at 100 ppm (Bean Aphid (Aphis fabae); 2 days): 100% | mortality at 100 ppm ([3]; 2 days): 100% | mortality at 1000 ppm ([3]; 1000 ppm., 2 days): 100% | mortality at 100 ppm [4]: 100% | mortality at 300 ppm [4]: 100% | mortality at 10 ppm [5]: 0% | mortality at 10 ppm [6]: 0% | mortality at 100 ppm [6]: 100% | mortality at 10 ppm [7]: 75%

CCOP(=S)(OCC)SCSC(C)(C)c1ccc(Cl)c(Cl)c1 [drawing 20]
mortality at 100 ppm ([1]; 100 ppm., 2 days): 0% | mortality at 100 ppm ([2]; 100 ppm., 2 days): 50% | mortality at 1 ppm (Bean Aphid (Aphis fabae); 1 ppm., 2 days): 0% | mortality at 10 ppm (Bean Aphid (Aphis fabae); 2 days): 90% | mortality at 100 ppm (Bean Aphid (Aphis fabae); 2 days): 100% | mortality at 100 ppm ([3]; 2 days): 100% | mortality at 1000 ppm ([3]; 1000 ppm., 2 days): 100% | mortality at 100 ppm [4]: 100% | mortality at 300 ppm [4]: 100% | mortality at 10 ppm [5]: 0% | mortality at 100 ppm [5]: 30% | mortality at 10 ppm [6]: 0% | mortality at 100 ppm [6]: 100% | mortality at 10 ppm [7]: 0%

COP(=S)(OC)SCSC(C)(C)c1ccc(Cl)c(Cl)c1 [drawing 21]
mortality at 100 ppm ([1]; 100 ppm., 2 days): 40% | mortality at 100 ppm ([2]; 100 ppm., 2 days): 70% | mortality at 1 ppm (Bean Aphid (Aphis fabae); 1 ppm., 2 days): 98% | mortality at 10 ppm (Bean Aphid (Aphis fabae); 2 days): 100% | mortality at 100 ppm (Bean Aphid (Aphis fabae); 2 days): 100% | mortality at 100 ppm ([3]; 2 days): 100% | mortality at 1000 ppm ([3]; 1000 ppm., 2 days): 100% | mortality at 100 ppm [4]: 100% | mortality at 300 ppm [4]: 100% | mortality at 10 ppm [5]: 0% | mortality at 100 ppm [5]: 30% | mortality at 10 ppm [6]: 0% | mortality at 100 ppm [6]: 100% | mortality at 10 ppm [7]: 67%

COP(=S)(OC)SCSC(C)(C)c1ccc(Cl)cc1 [drawing 22]
mortality at 100 ppm ([1]; 100 ppm., 2 days): 0% | mortality at 100 ppm ([2]; 100 ppm., 2 days): 100% | mortality at 1 ppm (Bean Aphid (Aphis fabae); 1 ppm., 2 days): 100% | mortality at 10 ppm (Bean Aphid (Aphis fabae); 2 days): 100% | mortality at 100 ppm (Bean Aphid (Aphis fabae); 2 days): 100% | mortality at 100 ppm ([3]; 2 days): 100% | mortality at 1000 ppm ([3]; 1000 ppm., 2 days): 100% | mortality at 100 ppm [4]: 100% | mortality at 300 ppm [4]: 100% | mortality at 10 ppm [5]: 0% | mortality at 100 ppm [5]: 50% | mortality at 10 ppm [6]: 0% | mortality at 100 ppm [6]: 100% | mortality at 10 ppm [7]: 100%

COP(=O)(SC)SCSC(C)(C)c1ccc(Cl)cc1 (stereo not drawn) [drawing 23]
mortality at 100 ppm ([1]; 100 ppm., 2 days): 0% | mortality at 100 ppm ([2]; 100 ppm., 2 days): 90% | mortality at 1 ppm (Bean Aphid (Aphis fabae); 1 ppm., 2 days): 95% | mortality at 10 ppm (Bean Aphid (Aphis fabae); 2 days): 100% | mortality at 100 ppm (Bean Aphid (Aphis fabae); 2 days): 100% | mortality at 100 ppm ([3]; 2 days): 0% | mortality at 1000 ppm ([3]; 1000 ppm., 2 days): 100% | mortality at 100 ppm [4]: 0% | mortality at 300 ppm [4]: 50% | mortality at 10 ppm [5]: 0% | mortality at 100 ppm [5]: 40% | mortality at 10 ppm [6]: 0% | mortality at 100 ppm [6]: 100% | mortality at 10 ppm [7]: 0%
